Measured values: patent US20230130403A1, “METHODS OF TREATMENT WITH S1P RECEPTOR MODULATORS” (PRIOTHERA SAS, priority 2021, published 2023)
Read-outs that look alike come from different tables or passages of the source.

Key:
[1] = tested on: respiratory function in dogs; assay: Safety pharmacology: respiratory function in dogs; format: in vivo, dog; settings: doses up to 20 mg/kg (highest dose tested)
Text: (§1) Based on the available in vitro and in vivo data, except for the potential to cause a negative chronotropic effect and some mild increase in blood pressure, there is no indication that KRP203 would cause arrhythmia or QT prolongation in man.

[2] = tested on: guinea pig papillary muscle preparation; assay: APD in guinea pig papillary muscle preparation; settings: concentrations of 3 μM
Text: as §1

QT prolongation = QT prolongation in anaesthetized guinea pigs; format: in vivo, guinea pig
Text: as §1

rats and rabbits = assay: Reproductive toxicity studies in rats and rabbits; format: in vivo
CYP3A4 = CYP3A4 (Homo sapiens, UniProt P08684); assay: Metabolism by CYP enzymes (in vitro data); format: in vitro ADME
Chain of CYP3A4 (P08684 whole entry): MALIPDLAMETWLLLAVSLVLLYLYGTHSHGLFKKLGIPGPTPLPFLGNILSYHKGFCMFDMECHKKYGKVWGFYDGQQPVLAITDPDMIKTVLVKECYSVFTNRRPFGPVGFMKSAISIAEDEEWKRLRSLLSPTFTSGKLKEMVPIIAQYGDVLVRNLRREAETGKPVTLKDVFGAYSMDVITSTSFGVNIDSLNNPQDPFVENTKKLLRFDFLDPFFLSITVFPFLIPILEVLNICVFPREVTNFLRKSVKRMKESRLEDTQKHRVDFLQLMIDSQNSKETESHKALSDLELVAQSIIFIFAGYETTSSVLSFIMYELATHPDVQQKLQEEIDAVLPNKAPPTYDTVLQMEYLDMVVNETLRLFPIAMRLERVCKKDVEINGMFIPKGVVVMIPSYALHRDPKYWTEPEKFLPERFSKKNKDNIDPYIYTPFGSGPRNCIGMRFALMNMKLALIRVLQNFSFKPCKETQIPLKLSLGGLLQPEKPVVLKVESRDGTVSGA
Text: The weak inhibitory effect of ciclosporin on hepatic CYP3A4 is unlikely to relevantly impact the PK of KRP203.

[3] = tested on: patients undergoing allogeneic HSCT for hematological malignancies; assay: Study CKRP203A2105, phase Ib in patients undergoing allogeneic HSCT;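 also: counts of subjects, HLA-matched donor stem cells, transplant on Day 11 following myeloablative chemotherapy conditioning from Day 2 to Day 10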
Text: The study population comprised of male or female subjects who were diagnosed with a hematological malignancy and qualified for a standard allogeneic HSCT where HLA matched stem cell source was available. Such malignancies included but were not limited to acute myeloid leukemia (AML), acute lymphoid leukemia (ALL), myelodysplastic syndrome (MDS, chronic lymphoid leukemia (CLL), marginal zone and follicular lymphomas, large-cell lymphoma, lymphoblastic, Burkitt's and other high grade lymphomas; mantle-cell lymphoma, lymphoplasmacytic lymphoma; prolymphocytic leukemia or multiple myeloma.
HSCT was performed on Day 11. In addition to the investigational treatment with KRP203, the activities included conditioning, standard GvHD prophylaxis, infusion of the stem cells, pre and post-transplant supportive care and follow-up assessments according to the institutional practices. Subjects remained hospitalized for two to five days after bone marrow engraftment occurred. The subsequent study visits were ambulatory or in-house, if needed depending on the health status of the subject.
Myeloablative conditioning was performed between Day 2 and Day 10 as per SOC using chemotherapy.
As in Part 1, HSCT was performed on Day 11, all other procedures/visits were same as in Part 1.

[4] = Part 1, 3 mg KRP203+CsA, n=10, after 30 days of transplant
[5] = Part 1, 3 mg KRP203+CsA, n=10, from transplant up to 30 days of transplant
[6] = Part 1, 3 mg KRP203+CsA, n=10, start of treatment until just before transplant
[7] = Part 1, after 30 days of transplantation
[8] = Part 1, start of treatment until just before transplant
[9] = Part 2, 1 mg KRP203+CsA arm, from transplant up to 30 days after transplant
[10] = Part 2, after 30 days of transplantation
[11] = Part 2, following 30 days after transplant

With NC(CO)(CO)CCc1ccc(Sc2cccc(OCc3ccccc3)c2)cc1Cl [KRP203, 2-amino-2-[4-(3-benzyloxyphenylthio)-2-chlorophenyl] ethyl-propane-1,3-diol] the “effects on respiratory function” value [1] was “no significant effects”, the APD prolongation [2] was “No APD prolongation” and the QT prolongation (QT prolongation) was “No indication for QT prolongation”. For the same molecule, the “no effects on male fertility up to highest dose” value (rats and rabbits; in vivo) was at most 20 mg/kg, the “NOAEL for embryo lethality and malformations” value (rats and rabbits; rat study) was “no NOAEL” and the reproductive toxicity (rats and rabbits; rats and rabbits) was “teratogenic potential and effects on the reproductive tract, resulting in embryo lethality and malformations at low doses”. The “metabolism by CYP enzymes” value (CYP3A4) was “only to a limited extent”, the “metabolism by CYP enzymes” value (CYP3A4; listed as Mocravimod) was “mainly metabolized by the enzyme CYP3A4” and the “subjects with AEs that resulted in discontinuation of study drug” value (shortened to “subjects with AEs that resulted”) ([3]; 1 mg KRP203+CsA arm) was 33%. The “safety profile between dose groups” value ([3]; 1 mg/day plus CsA or 3 mg/day plus CsA or TAC) was “comparable between the 1 mg and 3 mg mocravimod dose groups”, the “subjects with AEs that resulted” value ([3]; 3 mg KRP203+CsA arm) was 29% and the “subjects with AEs that resulted” value ([3]; 3 mg KRP203+Tac arm) was 14%. For the same molecule, the “subjects with AEs, SOC general disorders and administration site conditions” value [3, 4] was 60%, the “subjects with AEs, SOC immune system disorders” value [3, 4] was 100% and the “subjects with AEs, SOC infection and infestations” value [3, 4] was 50%. The “subjects with acute GvHD in intestine” value [3, 4] was 30%, the “subjects with acute GvHD in skin” value [3, 4] was 30% and the “subjects with chronic GvHD” value [3, 4] was 70%. For the same molecule, the “subjects with chronic GvHD in intestine” value [3, 4] was 20%, the “subjects with chronic GvHD in liver” value [3, 4] was 50% and the “subjects with chronic GvHD in skin” value [3, 4] was 30%. For the same molecule, the subjects with diarrhea [3, 4] was 20%, the “subjects with edema peripheral” value [3, 4] was 40% and the “subjects with edema peripheral suspected related to study treatment” value [3, 4] was 20%. For the same molecule, the “subjects with eyelid edema” value [3, 4] was 20%, the subjects with nausea [3, 4] was 20% and the subjects with rash [3, 4] was 20%. For the same molecule, the “subjects with AEs, SOC gastrointestinal disorder” value [3, 5] was 70%, the “subjects with AEs, SOC immune system disorders” value [3, 5] was 30% and the “subjects with AEs, SOC nervous system disorders” value [3, 5] was 30%. The “subjects with AEs, SOC respiratory, thoracic and mediastinal disorders” value [3, 5] was 40%, the “subjects with AEs, SOC vascular disorders” value [3, 5] was 30% and the “subjects with acute GvHD in intestine” value [3, 5] was 30%. For the same molecule, the “subjects with capillary leak syndrome (suspected related to study treatment)” value [3, 5] was 20%, the subjects with nausea [3, 5] was 20% and the “subjects with pleural effusion (suspected related to study treatment)” value [3, 5] was 20%. For the same molecule, the subjects with vomiting [3, 5] was 60%, the “subjects with AEs, SOC gastrointestinal disorders” value [3, 6] was 60% and the subjects with bradycardia [3, 6] was 20%. The “subjects with bradycardia suspected related to study treatment” value [3, 6] was 20%, the “subjects with hypertension suspected related to study treatment” value [3, 6] was 10% and the subjects with nausea [3, 6] was 20%. The “subjects with sinus arrest suspected related to study treatment” value [3, 6] was 10%, the subjects with vomiting [3, 6] was 40% and the “subjects reporting AEs” value ([3]; Part 1, after 30 days of study treatment) was “all subjects”. The “subjects with serious AEs suspected related (cystoid macular edema, dyspnea exertional, edema peripheral)” value ([3]; Part 1, after 30 days of transplant, mild severities) was 10%, the “subjects with SAEs” value [3, 7] was 40% and the “subjects with SAEs, general disorders and administration site conditions” value [3, 7] was 30%. The “subjects with SAEs, infections and infestations” value [3, 7] was 20%, the “subjects with SAEs, neoplasms benign, malignant and unspecified” value [3, 7] was 20% and the “subjects with serious AEs (acute GvHD, dyspnea and weight increased)” value ([3]; Part 1, from transplant up to 30 days after the transplant) was 20%. For the same molecule, the “subjects reporting AEs” value [3, 8] was “seven subjects”, the “subjects with serious AE of vomiting” value [3, 8] was 10% and the “subjects reporting AEs” value ([3]; Part 1, up to 30 days of transplant) was “nine subjects”. For the same molecule, the “subjects with serious AEs of blepharitis and cystoid macular edema” value [3, 9] was 10%, the “subjects with serious AEs suspected related (blepharitis Grade 2, cystoid macular edema Grade 3)” value [3, 9] was 17% and the “subjects with at least one AE” value ([3]; Part 2, both treatment arms (n=13), in each of the three periods) was 100%. The “subjects with serious AE acute GvHD in intestine” value [3, 10] was 23%, the “subjects with serious AE diarrhea” value [3, 10] was 15% and the “subjects with serious AE general physical health deterioration” value [3, 10] was 15%. The “incidence each of febrile bone marrow aplasia, hepatic failure, Hodgkin's disease, macular ischemia and retinal ischemia (related SAEs)” value [3, 11] was 8%, the “subjects with serious AEs suspected related to study treatment” value [3, 11] was 31% and the “serious AEs” value ([3]; Part 2, start of treatment until just before transplant) was “No serious AE”. For the same molecule, the “study discontinuation due to AEs” value ([3]; all 23 treated subjects) was 13%, the “study discontinuation due to death” value ([3]; all 23 treated subjects) was 9% and the deaths reported ([3]; overall, during the study, one-year and long-term follow-up period) was “seven”.
